Measured values taken from patent US6093732A, “4-hydroxyquinoline-3-carboxamides and hydrazides as antiviral agents” (Pharmacia & Upjohn Company, priority 1998, dated 2000).

Target: T1, HCMV polymerase (Human cytomegalovirus, UniProt P08546)
T1 construct: made in house; host or cells: recombinant baculovirus-infected SF-9 cells
Assay: HCMV polymerase scintillation proximity assay (SPA), modified version
Assay type: biochemical
Details: CMV polymerase; Table 1; modified assay with 4.5 mM DTT, compounds in 100% DMSO; read-out: Antiviral Selective Polymerase IC50 Values, CMV
Summary of the method: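 Recombinant polymerase (baculovirus/SF-9) in 5.4 mM HEPES pH 7.5, 11.7 mM KCl, 4.5 mM MgCl2, 0.36 mg/ml BSA, 90 nM 3H-dTTP, ±2 mM CHAPS; started with 6 nM biotinylated poly(dA)-oligo(dT), 25° C or 37° C, EDTA-stopped in linear range (30 min for HCMV). Streptavidin-SPA read; IC50 by linear regression. Modified version: 100% DMSO compound dilution, 4.5 mM DTT added.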

T1 sequence (P08546 whole entry): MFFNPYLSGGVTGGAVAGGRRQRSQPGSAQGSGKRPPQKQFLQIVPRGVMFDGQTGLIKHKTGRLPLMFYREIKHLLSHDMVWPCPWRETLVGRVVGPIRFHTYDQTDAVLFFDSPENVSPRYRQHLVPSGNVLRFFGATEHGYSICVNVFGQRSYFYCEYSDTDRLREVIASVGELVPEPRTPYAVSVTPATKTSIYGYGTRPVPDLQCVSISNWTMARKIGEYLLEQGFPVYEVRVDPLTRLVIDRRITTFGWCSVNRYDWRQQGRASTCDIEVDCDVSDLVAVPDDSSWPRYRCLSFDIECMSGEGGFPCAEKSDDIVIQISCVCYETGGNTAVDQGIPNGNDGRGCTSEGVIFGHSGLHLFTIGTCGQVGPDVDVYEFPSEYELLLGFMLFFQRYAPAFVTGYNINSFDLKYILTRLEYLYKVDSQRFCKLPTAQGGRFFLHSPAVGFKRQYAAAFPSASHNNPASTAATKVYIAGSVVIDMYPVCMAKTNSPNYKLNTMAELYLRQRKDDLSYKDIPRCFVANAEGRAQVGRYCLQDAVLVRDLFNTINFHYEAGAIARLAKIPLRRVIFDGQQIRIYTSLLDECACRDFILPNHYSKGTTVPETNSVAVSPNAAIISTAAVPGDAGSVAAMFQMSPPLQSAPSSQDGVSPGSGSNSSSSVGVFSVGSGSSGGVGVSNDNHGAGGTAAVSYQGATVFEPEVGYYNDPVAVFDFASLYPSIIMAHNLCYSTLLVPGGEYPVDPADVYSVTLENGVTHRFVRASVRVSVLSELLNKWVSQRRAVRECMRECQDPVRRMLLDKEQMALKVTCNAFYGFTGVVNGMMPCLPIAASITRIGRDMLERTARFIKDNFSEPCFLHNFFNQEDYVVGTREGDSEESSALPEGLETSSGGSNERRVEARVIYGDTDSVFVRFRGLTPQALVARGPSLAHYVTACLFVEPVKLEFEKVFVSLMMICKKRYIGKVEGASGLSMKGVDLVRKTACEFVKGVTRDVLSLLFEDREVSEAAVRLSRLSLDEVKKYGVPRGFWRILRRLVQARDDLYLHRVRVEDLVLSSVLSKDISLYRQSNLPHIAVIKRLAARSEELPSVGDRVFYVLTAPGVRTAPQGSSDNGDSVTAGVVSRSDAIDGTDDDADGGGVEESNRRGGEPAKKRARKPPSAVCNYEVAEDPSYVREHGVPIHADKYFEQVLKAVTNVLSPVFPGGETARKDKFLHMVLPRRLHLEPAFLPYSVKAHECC

SMILES	IC50 [µM]
O=C(NCc1ccc(Cl)cc1)c1cnc2ccc(NCCO)cc2c1O [Example 188, N-(4-Chlorobenzyl)-4-hydroxy-6-[(2-hydroxyethyl)amino]-3-quinolinecarboxamide]	2.1
CCN(CCO)c1ccc2ncc(C(=O)NCc3ccc(Cl)cc3)c(O)c2c1 [Example 189, N-(4-Chlorobenzyl)-6-[ethyl(2-hydroxyethyl)amino]-4-hydroxy-3-quinolinecarboxamide]	19.4
O=C(NCc1ccc(Cl)cc1)c1cnc2ccc(N3CCOC3=O)cc2c1O [Example 190, N-(4-Chlorobenzyl)-4-hydroxy-6-(2-oxo-1,3-oxazolidin-3-yl)-3-quinolinecarboxamide]	2.7
O=C(NCc1ccc(Cl)cc1)c1cnc2c(F)cc(S(=O)(=O)NCc3cccc4ccccc34)cc2c1O [Example 192, N-(4-Chlorobenzyl)-8-fluoro-4-hydroxy-6-{[(1-naphthylmethyl)aminor]-sulfonyl}-3-quinolinecarboxamide]	1.6
O=C(NCc1ccc(Cl)cc1)c1cnc2c(F)cc(S(=O)(=O)NCCc3c[nH]c4ccccc34)cc2c1O [Example 193, N-(4-Chlorobenzyl)-8-fluoro-4-hydroxy-6-({[2-(1H-indol-3-yl)ethyl]-amino)sulfonyl)-3-quinolinecarboxamide]	2.7
O=C(NCc1ccc(Cl)cc1)c1cnc2c(F)cc(S(=O)(=O)NCc3ccco3)cc2c1O [Example 194, N-(4-Chlorobenzyl)-8-fluoro-6-{[(2-furylmethyl)amino]sulfonyl}-4-hydroxy-3-quinolinecarboxamide]	15.3
O=C(NCc1ccc(Cl)cc1)c1cnc2c(F)cc(S(=O)(=O)N(CCO)CCO)cc2c1O [Example 195, 6-{[Bis(2-hydroxyethyl)amino]sulfonyl}-N-(4-chlorobenzyl)-8-fluoro-4-hydroxy-3-quinolinecarboxamide]	18.3
CCOC(=O)CNS(=O)(=O)c1cc(F)c2ncc(C(=O)NCc3ccc(Cl)cc3)c(O)c2c1 [Example 196, Ethyl 2-{[(3-{[(4-chlorobenzyl)amino]carbonyl}-8-fluoro-4-hydroxy-6-quinolinyl)sulfonyl]amino) acetate]	19.4
O=C(NCc1ccc(Cl)cc1)c1cnc2c(F)cc(S(=O)(=O)NCCO)cc2c1O [Example 197, N-(4-Chlorobenzyl)-8-fluoro-4-hydroxy-6-{[(2-hydroxyethyl)amino]-sulfonyl}-3-quinolinecarboxamide]	19.6
O=C(NCc1ccc(Cl)cc1)c1cnc2c(F)cc(S(=O)(=O)N3CCOCC3)cc2c1O [Example 198, N-(4-Chlorobenzyl)-8-fluoro-4-hydroxy-6-(4-morpholinylsulfonyl)-3-quinolinecarboxamide]	21
O=C(NCc1ccc(Cl)cc1)c1cnc2c(F)cc(S(=O)(=O)NCc3ccccn3)cc2c1O [Example 199, N-(4-Chlorobenzyl)-8-fluoro-4-hydroxy-6-{[(2-pyridinylmethyl)amino]-sulfonyl}-3-quinolinecarboxamide]	26.4
O=C(NCc1ccc(Cl)cc1)c1cnc2c(F)cc(S(=O)(=O)Nc3ccccn3)cc2c1O [Example 200, N-(4-Chlorobenzyl)-8-fluoro-4-hydroxy-6-[(2-pyridinylamino)-sulfonyl]-3-quinolinecarboxamide]	38.8
O=C(NCc1ccc(Cl)cc1)c1cnc2c(F)cc(S(=O)(=O)NCC3CCCCC3)cc2c1O [Example 201, N-(4-chlorobenzyl)-6-{[(cyclohexylmethyl)amino]sulfonyl}-8-fluoro-4-hydroxy-3-quinolinecarboxamide]	6
CN1CCCC1CCNS(=O)(=O)c1cc(F)c2ncc(C(=O)NCc3ccc(Cl)cc3)c(O)c2c1 (stereo not shown) [Example 202, N-(4-chlorobenzyl)-8-fluoro-4-hydroxy-6-({[2-(1-methyl-2-pyrrolidinyl)ethyl]amino}sulfonyl)-3-quinolinecarboxamide]	≥ 50
O=C(NCc1ccc(Cl)cc1)c1cnc2c(F)cc(S(=O)(=O)NCCN3CCCC3)cc2c1O [Example 203, N-(4-chlorobenzyl)-8-fluoro-4-hydroxy-6-({[2-(1-pyrrolidinyl)ethyl]amino}sulfonyl)-3-quinolinecarboxamide]	38.8
O=C(NCc1ccc(Cl)cc1)c1cnc2c(F)cc(S(=O)(=O)NCc3ccco3)cc2c1O [Example 204, N-(4-chlorobenzyl)-8-fluoro-6-{[(2-furylmethyl)amino]sulfonyl}-4-hydroxy-3-quinolinecarboxamide]	13.8
O=C(NCc1ccc(Cl)cc1)c1cnc2c(F)cc(S(=O)(=O)NCCCNC3CCCCC3)cc2c1O [Example 205, N-(4-chlorobenzyl)-6-({[3-(cyclohexylamino)propyl]amino}sulfonyl)-8-fluoro-4-hydroxy-3-quinolinecarboxamide]	≥ 50

SMILES	IC50 [µM]
O=C(NCc1ccc(Cl)cc1)c1cnc2c(F)cc(S(=O)(=O)NCc3cccc4ccccc34)cc2c1O [Example 206, N-(4-chlorobenzyl)-8-fluoro-4-hydroxy-6-{[(1-naphthylmethyl)amino]sulfonyl}-3-quinolinecarboxamide]	2.4
O=C(NCc1ccc(Cl)cc1)c1cnc2c(F)cc(S(=O)(=O)NCCc3c[nH]cn3)cc2c1O [Example 207, N-(4-chlorobenzyl)-8-fluoro-4-hydroxy-6-({[2-(1H-imidazol-4-yl)ethyl]amino}sulfonyl)-3-quinolinecarboxamide]	14.4
O=C(NCc1ccc(Cl)cc1)c1cnc2c(F)cc(S(=O)(=O)NCC3CCCO3)cc2c1O (stereo not shown) [Example 208, N-(4-chlorobenzyl)-8-fluoro-4-hydroxy-6-{[(tetrahydro-2-furanylmethyl)amino]sulfonyl}-3-quinolinecarboxamide]	41.6
O=C(NCc1ccc(Cl)cc1)c1cnc2c(F)cc(S(=O)(=O)NCc3cccs3)cc2c1O [Example 209, N-(4-chlorobenzyl)-8-fluoro-4-hydroxy-6-{[(2-thienylmethyl)amino]sulfonyl}-3-quinolinecarboxamide]	8.6
O=C(NCc1ccc(Cl)cc1)c1cnc2c(F)cc(S(=O)(=O)NCCc3c[nH]c4ccccc34)cc2c1O [Example 210, N-(4-chlorobenzyl)-8-fluoro-4-hydroxy-6-({[2-(1H-indol-3-yl)ethyl]amino}sulfonyl)-3-quinolinecarboxamide]	4.8
COc1ccc2[nH]cc(CCNS(=O)(=O)c3cc(F)c4ncc(C(=O)NCc5ccc(Cl)cc5)c(O)c4c3)c2c1 [Example 211, N-(4-chlorobenzyl)-8-fluoro-4-hydroxy-6-({[2-(5-methoxy-1H-indol-3-yl)ethyl]amino}sulfonyl)-3-quinolinecarboxamide]	5.1
O=C(NCc1ccc(Cl)cc1)c1cnc2c(F)cc(S(=O)(=O)NCc3ccc4c(c3)OCO4)cc2c1O [Example 212, 6-{[(1,3-benzodioxol-5-ylmethyl)amino]sulfonyl}-N-(4-chlorobenzyl)-8-fluoro-4-hydroxy-3-quinolinecarboxamide]	14.5
O=C(NCc1ccc(Cl)cc1)c1cnc2c(F)cc(S(=O)(=O)NCCN3CCOCC3)cc2c1O [Example 213, N-(4-chlorobenzyl)-8-fluoro-4-hydroxy-6-{[(2-morpholinoethyl)amino]sulfonyl}-3-quinolinecarboxamide]	18.9
O=C(NCc1ccc(Cl)cc1)c1cnc2c(F)cc(S(=O)(=O)NCCCN3CCOCC3)cc2c1O [Example 214, N-(4-chlorobenzyl)-8-fluoro-4-hydroxy-6-{[(3-morpholinopropyl)amino]sulfonyl}-3-quinolinecarboxamide]	29.7
O=C(NCc1ccc(Cl)cc1)c1cnc2c(F)cc(S(=O)(=O)NCCNc3ccc([N+](=O)[O-])cn3)cc2c1O [Example 215, N-(4-chlorobenzyl)-8-fluoro-4-hydroxy-6-[({2-[(5-nitro-2-pyridinyl)amino]ethyl}amino)sulfonyl]-3-quinolinecarboxamide]	8.6
O=C(NCc1ccc(Cl)cc1)c1cnc2c(F)cc(S(=O)(=O)NCc3ccccn3)cc2c1O [Example 216, N-(4-chlorobenzyl)-8-fluoro-4-hydroxy-6-{[(2-pyridinylmethyl)amino]sulfonyl}-3-quinolinecarboxamide]	18.7
O=C(NCc1ccc(Cl)cc1)c1cnc2c(F)cc(S(=O)(=O)NCCc3ccccn3)cc2c1O [Example 217, N-(4-chlorobenzyl)-8-fluoro-4-hydroxy-6-({[2-(2-pyridinyl)ethyl]amino}sulfonyl)-3-quinolinecarboxamide]	15.2
O=C(NCc1ccc(Cl)cc1)c1cnc2c(F)cc(S(=O)(=O)NCc3cccnc3)cc2c1O [Example 218, N-(4-chlorobenzyl)-8-fluoro-4-hydroxy-6-{[(3-pyridinylmethyl)amino]sulfonyl}-3-quinolinecarboxamide]	17.6
O=C(NCc1ccc(Cl)cc1)c1cnc2c(F)cc(S(=O)(=O)NCc3ccncc3)cc2c1O [Example 219, N-(4-chlorobenzyl)-8-fluoro-4-hydroxy-6-{[(4-pyridinylmethyl)amino]sulfonyl}-3-quinolinecarboxamide]	11
O=C(NCc1ccc(Cl)cc1)c1cnc2c(F)cc(S(=O)(=O)NCc3ccc(Cl)cc3)cc2c1O [Example 220, N-(4-chlorobenzyl)-6-{[(4-chlorobenzyl)amino]sulfonyl}-8-fluoro-4-hydroxy-3-quinolinecarboxamide]	10.7
COc1ccc(CNS(=O)(=O)c2cc(F)c3ncc(C(=O)NCc4ccc(Cl)cc4)c(O)c3c2)cc1 [Example 221, N-(4-chlorobenzyl)-8-fluoro-4-hydroxy-6-{[(4-methoxybenzyl)amino]sulfonyl}-3-quinolinecarboxamide]	12.5
CC(C)(C)CNS(=O)(=O)c1cc(F)c2ncc(C(=O)NCc3ccc(Cl)cc3)c(O)c2c1 [Example 222, N-(4-chlorobenzyl)-8-fluoro-4-hydroxy-6-[(neopentylamino)sulfonyl]-3-quinolinecarboxamide]	11.5
